Assay results: patent US7425631B2 (Amgen Inc., priority 2003, dated 2008)

Molecular target: T1, human B1 receptor (Homo sapiens, UniProt P46663)
T1 construct: expressed in transfected cells
T1 sequence (P46663 1-353): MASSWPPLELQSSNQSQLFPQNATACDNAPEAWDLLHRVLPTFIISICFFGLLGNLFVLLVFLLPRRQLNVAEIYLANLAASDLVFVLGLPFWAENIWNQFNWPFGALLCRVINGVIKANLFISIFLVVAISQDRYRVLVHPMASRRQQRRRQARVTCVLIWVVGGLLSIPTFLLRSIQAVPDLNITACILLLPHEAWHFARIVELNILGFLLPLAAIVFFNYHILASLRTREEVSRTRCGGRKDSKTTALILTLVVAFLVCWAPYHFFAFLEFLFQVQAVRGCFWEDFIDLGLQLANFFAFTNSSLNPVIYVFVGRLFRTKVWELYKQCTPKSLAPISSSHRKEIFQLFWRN
Experiment: In vitro assay of human B1 receptor function using calcium flux (aequorin luminescence)
Type: cell-based
Details: CHO D-/hB1/Aequorin cells, agonist 20 nM des-Arg10-Kallidin (EC80); read-out: binding IC50's to hB1 receptor function
Procedure: Activation of the Gq linked B1 receptor results in an increase in intracellular calcium. […] Aequorin is a 21-kDa photoprotein that forms a bioluminescent complex when linked to the chromophore cofactor coelenterazine.
Following coelenterazine incubation, an automated flash-luminometer platform was used to dispense the B1 antagonist compounds (dissolved in DMSO and diluted with buffer to the desired concentration (final DMSO concentration <1% DMSO)) to the cell plate, a CCD camera situated underneath the cell plate took 12 images of the cell plate at 5 second intervals to determine if there was any agonist activity with the compounds. The hB1 agonist, des-Arg10-Kallidin, was added to the cell plate and another 12 images were recorded to determine the IC50 of the antagonist(s).

IC50, < 10 nM:
CC(C)NCc1ccc2c(c1)CCC[C@H]2NC(=O)C[C@@H](NS(=O)(=O)c1ccc(Cl)c(Cl)c1)c1ccccc1
O=C(CC(NS(=O)(=O)c1cccc(C(F)(F)F)c1)c1ccc(F)cc1)N[C@@H]1CCCc2cc(CN3CCCCC3)ccc21 (stereo in doubt) [ba, (3S)-3-(4-fluorophenyl)-N-((1R)-6-(1-piperidinylmethyl)-1,2,3,4-tetrahydro-1-naphthalenyl)-3-(((3-(trifluoromethyl)phenyl)sulfonyl)amino)propanamide]
O=C(C[C@@H](NS(=O)(=O)c1cccc(C(F)(F)F)c1)c1ccccc1)N[C@@H]1CCOc2cc(CN3CCCCC3)ccc21 [Example 166, (3R)-3-Phenyl-N-((4R)-7-(1-piperidinylmethyl)-3,4-dihydro-2H-chromen-4-yl)-3-(((3-(trifluoromethyl)phenyl)sulfonyl)amino)propanamide]
O=C(C[C@@H](NS(=O)(=O)c1ccc(Cl)c(Cl)c1)c1ccccc1)N[C@@H]1CCOc2cc(CN3CCCCC3)ccc21 [Example 168, (3R)-3-(((3,4-Dichlorophenyl)sulfonyl)amino)-3-phenyl-N-((4R)-7-(1-piperidinylmethyl)-3,4-dihydro-2H-chromen-4-yl)propanamide]
O=C(C[C@@H](NS(=O)(=O)c1ccc(Cl)c(Cl)c1)c1ccccc1)N[C@@H]1CCOc2cc(CN3CCOCC3)ccc21 [Example 169, (3R)-3-(((3,4-Dichlorophenyl)sulfonyl)amino)-N-((4R)-7-(4-morpholinylmethyl)-3,4-dihydro-2H-chromen-4-yl)-3-phenylpropanamide]
CC(C)(C)NCc1ccc2c(c1)OCC[C@H]2NC(=O)C[C@@H](NS(=O)(=O)c1cccc(C(F)(F)F)c1)c1ccccc1 [Example 170, (3R)-N-((4R)-7-(((1,1-Dimethylethyl)amino)methyl)-3,4-dihydro-2H-chromen-4-yl)-3-phenyl-3-(((3-(trifluoromethyl)phenyl)sulfonyl)amino)propanamide]
CN1c2cc(CN3CCCCC3)ccc2[C@@H](NC(=O)C[C@@H](NS(=O)(=O)c2ccc3ccccc3c2)c2ccccc2)CS1(=O)=O [Example 175, (3R)-N-((4R)-1-Methyl-2,2-dioxido-7-(1-piperidinylmethyl)-3,4-dihydro-1H-2,1-benzothiazin-4-yl)-3-((2-naphthalenylsulfonyl)amino)-3-phenylpropanamide]
O=C(C[C@@H](NS(=O)(=O)c1ccc2ccccc2c1)c1ccccc1)N[C@H]1CCc2cc(CN3CCCCC3)ccc21 [Example 176, (3R)-3-((2-Naphthalenylsulfonyl)amino)-3-phenyl-N-((1S)-5-(1-piperidinylmethyl)-2,3-dihydro-1H-inden-1-yl)propanamide]
O=C(C[C@@H](NS(=O)(=O)c1cccc(C(F)(F)F)c1)c1ccccc1)N[C@@H]1CCOc2cc(CN3CCC(F)CC3)ccc21 [Example 185, (3R)-N-((4R)-7-((4-Fluoro-1-piperidinyl)methyl)-3,4-dihydro-2H-chromen-4-yl)-3-phenyl-3-(((3-(trifluoromethyl)phenyl)sulfonyl)amino)propanamide]
O=C(C[C@@H](NS(=O)(=O)c1cccc(C(F)(F)F)c1)c1ccccc1)N[C@@H]1CCOc2cc(CN3CCC(F)(F)CC3)ccc21 [Example 198, (3R)-N-((4R)-7-((4,4-Difluoro-1-piperidinyl)methyl)-3,4-dihydro-2H-chromen-4-yl)-3-phenyl-3-(((3-(trifluoromethyl)phenyl)sulfonyl)amino)propanamide]
C=C(CN1CCCCC1)c1ccc2c(c1)CCC[C@H]2NC(=O)C[C@@H](NS(=O)(=O)c1ccc(Cl)c(Cl)c1)c1ccccc1 [Example 218d, (3R)-3-(((3,4-dichlorophenyl)sulfonyl)amino)-3-phenyl-N-((1R)-6-(1-(1-piperidinylmethyl)ethenyl)-1,2,3,4-tetrahydro-1-naphthalenyl)propanamide]
C=C(CN1CC[C@H](O)C1)c1ccc2c(c1)CCC[C@H]2NC(=O)C[C@@H](NS(=O)(=O)c1cccc(C(F)(F)F)c1)c1ccccc1 [Example 218j, (3R)-N-((1R)-6-(1-(((3S)-3-hydroxy-1-pyrrolidinyl)methyl)ethenyl)-1,2,3,4-tetrahydro-1-naphthalenyl)-3-phenyl-3-(((3-(trifluoromethyl)phenyl)sulfonyl)amino)propanamide]
C=C(CN1CCCC1)c1ccc2c(c1)CCC[C@H]2NC(=O)C[C@@H](NS(=O)(=O)c1cccc(C(F)(F)F)c1)c1ccccc1 [Example 218q, (3R)-3-phenyl-N-((1R)-6-(1-(1-pyrrolidinylmethyl)ethenyl)-1,2,3,4-tetrahydro-1-naphthalenyl)-3-(((3-(trifluoromethyl)phenyl)sulfonyl)amino)propanamide]
C=C(CN1CCCCC1)c1ccc2c(c1)CCC[C@H]2NC(=O)C[C@@H](NS(=O)(=O)c1cccc(C(F)(F)F)c1)c1ccccc1 [Example 218r, (3R)-3-phenyl-N-((1R)-6-(1-(1-piperidinylmethyl)ethenyl)-1,2,3,4-tetrahydro-1-naphthalenyl)-3-(((3-(trifluoromethyl)phenyl)sulfonyl)amino)propanamide]
CC(C)CNC(C)c1ccc2c(c1)CCC[C@H]2NC(=O)C[C@@H](NS(=O)(=O)c1cccc(C(F)(F)F)c1)c1ccccc1 (stereo partly drawn) [Example 220a, (3R)-3-((hydroxy(oxido)(3-(trifluoromethyl)phenyl)-lambda-4—sulfanyl)amino)-N-((1R)-6-((1R)-1-((2-methylpropyl)amino)ethyl)-1,2,3,4-tetrahydro-1-naphthalenyl)-3-phenylpropanamide]
CC(C)CNC(C)c1ccc2c(c1)CCC[C@H]2NC(=O)C[C@@H](NS(=O)(=O)c1ccc2ccccc2c1)c1ccccc1 (stereo partly drawn) [Example 220g]
CC(C)(C)NCc1ccc2c(c1)CCC[C@H]2NC(=O)C[C@H](NS(=O)(=O)c1cccc(C(F)(F)F)c1)c1ccc(F)cc1 [a, (3S)-N-((1R)-6-(((1,1-dimethylethyl)amino)-methyl)-1,2,3,4-tetrahydro-1-naphthalenyl)-3-(4-fluorophenyl)-3-(((3-(trifluoromethyl)phenyl)-sulfonyl)amino)propanamide]
CN([C@H](CC(=O)N[C@@H]1CCCc2cc(CN3CCCCC3)ccc21)c1ccccc1)S(=O)(=O)c1cccc(C(F)(F)F)c1 [aa, (3R)-3-(methyl((3-(trifluoromethyl)phenyl)sulfonyl)amino)-3-phenyl-N-((1R)-6-(1-piperidinylmethyl)-1,2,3,4-tetrahydro-1-naphthalenyl)propanamide]
Cc1c(S(=O)(=O)N[C@H](CC(=O)NC2CCCc3cc(CNC(C)(C)C)ccc32)c2ccccc2)sc2ccc(Cl)cc12 (stereo partly drawn) [ad, (3R)-3-(((5-chloro-3-methyl-1-benzothien-2-yl)sulfonyl)amino)-N-(6-(((1,1-dimethylethyl)amino)methyl)-1,2,3,4-tetrahydro-1-naphthalenyl)-3-phenylpropanamide]
Cc1c(S(=O)(=O)N[C@H](CC(=O)NC2CCCc3cc(CN4CCCCC4)ccc32)c2ccccc2)sc2ccc(Cl)cc12 (stereo partly drawn) [ae, (3R)-3-(((5-chloro-3-methyl-1-benzothien-2-yl)sulfonyl)amino)-3-phenyl-N-(6-(1-piperidinylmethyl)-1,2,3,4-tetrahydro-1-naphthalenyl)propanamide]
O=C(C[C@@H](NS(=O)(=O)c1cccc(C(F)(F)F)c1)c1ccccc1)N[C@@H]1CCCc2cc(CN3CC=CCC3)ccc21 [am, (3R)-N-((1R)-6-(3,6-dihydro-1(2H)-pyridinylmethyl)-1,2,3,4-tetrahydro-1-naphthalenyl)-3-phenyl-3-(((3-(trifluoromethyl)phenyl)sulfonyl)amino)propanamide]
COc1ccc([C@@H](CC(=O)N[C@@H]2CCCc3cc(CN4CCCCC4)ccc32)NS(=O)(=O)c2cc3cc(Cl)ccc3s2)cn1 [aw, (3R)-3-(((5-chloro-1-benzothien-2-yl)sulfonyl)amino)-3-(6-(methyloxy)-3-pyridinyl)-N-((1R)-6-(1-piperidinylmethyl)-1,2,3,4-tetrahydro-1-naphthalenyl)propanamide]
COc1ccc([C@@H](CC(=O)N[C@@H]2CCCc3cc(CN4CCCCC4)ccc32)NS(=O)(=O)c2cccc(C(F)(F)F)c2)cn1 [ay, (3R)-3-(6-(methyloxy)-3-pyridinyl)-N-((1R)-6-(1-piperidinylmethyl)-1,2,3,4-tetrahydro-1-naphthalenyl)-3-(((3-(trifluoromethyl)phenyl)sulfonyl)amino)propanamide]
CC(C)CNCc1ccc2c(c1)CCC[C@H]2NC(=O)C[C@@H](NS(=O)(=O)c1ccc(Cl)c(Cl)c1)c1ccccc1 [bg, (3R)-3-(((3,4-dichlorophenyl)sulfonyl)amino)-N-((1R)-6-(((2-methylpropyl)amino)methyl)-1,2,3,4-tetrahydro-1-naphthalenyl)-3-phenylpropanamide]
